“And” between values parts separate entries of the source, which are not always exact repeats. Equal entries are not always repeated.
Experiments:
[1] = system: γδ T cell; assay: In vitro TNFα release assay, γδ T cell amplification from human PBMCs (in the presence of rhIL2); format: cell-based; conditions: TNFα release assay; human PBMCs, rhIL2
Experimental: The in vitro biological activity of γδ T cell amplification from human PBMCs (in the presence of rhIL2) was assessed using a TNFα release assay.
Cytokine secretion and cytolytic activity can be assessed using any appropriate in vitro assay, or those provided in the examples herein. For example, cytokine secretion can be determined according to the methods described in Espinosa et al. (J. Biol. Chem., 2001, Vol. 276, Issue 21, 18337-18344), describing measurement of TNF-α release in a bioassay using TNF-α-sensitive cells. Briefly, 10^4 γδT cells/well were incubated with stimulus plus 25 units of IL2/well in 100 μl of culture medium during 24 h at 37° C. Then, 50 μl of supernatant were added to 50 μl of WEHI cells plated at 3×10^4 cells/well in culture medium plus actinomycin D (2 μg/ml) and LiCl (40 mM) and incubated for 20 h at 37° C. Viability of the TNF-α-sensitive cells and measured with a 3-(4,5-dimethylthiazol-2-yl)-2,5-diphenyltetrazolium bromide assay. 50 μl of 3-(4,5-dimethylthiazol-2-yl)-2,5-diphenyltetrazolium bromide (Sigma; 2.5 mg/ml in phosphate-buffered saline) per well were added, and after 4 h of incubation at 37° C., 50 μl of solubilization buffer (20% SDS, 66% dimethyl formamide, pH 4.7) were added, and absorbance (570 nm) was measured. Levels of TNF-α release were then calculated from a standard curve obtained using purified human rTNF-α (PeproTech, Inc., Rocky Hill, N.J.). Interferon-γ released by activated T cells was measured by a sandwich enzyme-linked immunosorbent assay. 5×10^4 γδT cells/well were incubated with stimulus plus 25 units of IL2/well in 100 μl of culture medium during 24 h at 37° C. Then, 50 μl of supernatant were harvested for enzyme-linked immunosorbent assay using mouse monoclonal antibodies (BIOSOURCE, Camarillo, Calif.). […]
BrHPP and HDMAPP bioactivity were compared using in vitro and in vivo assays. The in vitro biological activity of γδ T cell amplification from human PBMCs (in the presence of rhIL2) was assessed using a TNFα release assay.

[2] = system: Vg9Vd2 T cells; assay: Peripheral Vg9Vd2 T cell expansion in cynomolgus monkeys by flow cytometry (BrHPP non-GLP studies); format: in vivo, cynomolgus monkeys (M. fascicularis); conditions: for Absolute increase of Vg9Vd2: individual animals
Experimental: • Group 1: 5 purpose bred healthy male cynomolgus monkeys (M. fascicularis), supplied by C.R.P. Le Vallon, Ferney S.E., Mahebourg, Mauritius. At the beginning of the study, body weights range from 3.7 to 4.6 kg. • Group 2: 10 purpose bred healthy cynomolgus monkeys (5 males and 5 females), supplied by C.R.P. Le Vallon. At the beginning of the study, body weights range from 1.8 to 3.5 kg and ages from 2 to 3 years.
• Group 1: animals were anaesthetised with intra-muscular injection of 6 mg/kg ZoletilND 100 (Tiletamine-Zolazepam, Virbac, Carros, France) before any injection or blood taking. • Group 2: injections and blood taking were performed on manually restrained non-anaesthetised animals. • 4-day BrHPP alone treatment (group 1): 2 animals received 1 mg/kg of BrHPP in 10 ml saline on day 0 (microflex infusion set introduced into the external saphenous vein) and then 4 mg/kg, 16 mg/kg and 32 mg/kg in 20 ml saline on days 1, 2 and 3 by the same way. (Duration of infusion: 10 to 15 min). • BrHPP/IL2 co-treatments (group 1): 5 animals received either 20 mg/kg once or 4 mg/kg (16.7 mg/kg or 3.3 mg/kg of BrHPP anionic form) 5 times daily of BrHPP in final 50 ml saline by the same way as above (duration of infusion: 30 min). IL2 (18 million UI per vial, Proleukin®, Chiron, US) was resuspended in 1 ml sterile water and diluted to 10 ml with 4% HSA for a final concentration of 1.8 million UI/ml. In a first cycle of treatment, all animals received the same dose of IL2 consisting of 5 days of twice daily injections of 0.9 million units IL2. In a second cycle of treatment, animals received subcutaneously the following IL2 treatment: 0.15 million units twice daily for 9 days (animal Z059), 0.3 million units twice daily for 5 days (Z135), 0.9 million units twice daily for 5 days (animal Z714) or 9 days (animal X973).
A single animal received 80 mg/kg (66.6 mg/kg anionic form) BrHPP+9 days of IL2 co-treatment consisting of a single daily subcutaneous injection of 0.6 million units. • BrHPP/IL2 co-treatments (group 2): BrHPP was diluted in saline to the appropriate final concentration (depending on the dose to inject and on the last recorded body weight) so as to inject always approximately 50 ml in 30 min (microflex infusion set introduced into cephalic or external saphenous vein). All animals received 0.6 million IU IL2 per day for 7 days. IL2 was administered subcutaneously as 2 separate injections of 0.3 million IU IL2 in sterile water, 8-hour apart. Control animals received IL2 only.
Twice weekly blood samples (1 to 4 ml) were withdrawn from femoral vessels/artery into EDTA containing tubes. Tubes were shipped overnight at room temperature (RT) before flow cytometry analyses.
Peripheral γδ lymphocytes were analysed twice weekly by flow cytometry on total monkey blood, after double staining with anti-CD3-PE antibody and anti-Vgamma9-FITC antibodies and/or anti Vd2 antibodies (CD3-PE: SP34 clone, BD Biosciences Pharmingen, Le Pont de Claix, France). Anti Vgamma 9, clone 7B6 is a monoclonal raised to human Vgamma 9 but that cross-reacts with cynomolgus cells. It was purified by affinity chromatography on protein A and coupled to FITC as previously described.
Briefly, 50 μl monkey blood is incubated 15 min at RT with 5 μl anti-CD3-PE and 6 μl anti-delta2-FITC or 10 μl anti-gamma9-FITC antibodies. Antibodies are washed with 3 ml 1×PBS, centrifuged for 4 min at 1300 rpm at RT and supernatant is discarded. Red cells are lysed with the OptiLyse C reagent (Immunotech-Beckman-Coulter, Marseilles, France) according to the manufacturer's instructions. At the final step, stained white blood cells are recovered by centrifugation and resuspended in 300 μl PBS+0.2% PFA.

[3] = highest concentration (160 mg/kg), second injection + IL2

3-(bromomethyl)-3-butanol-1-yl-diphosphate [BrHPP]
EC50 [1]: ~30 nM
% and absolute numbers of Vg9Vd2 ([2]; 0.2 mg/kg + IL2 7 days): undistinguishable from the control animals
peak of increase in peripheral γδ cells ([2]; 20 mg/kg once or 4 mg/kg x 5 + IL2, group 1): 7 days
% and absolute numbers of Vg9Vd2 ([2]; 4 to 80 mg/kg + IL2, day 7): A dose range effect was observed
expansion at recall ([2]; first 20 mg, then 80 mg): expansions comparable to animals treated with 80 mg/kg at the first injection
expansion at recall ([2]; first 80 mg/kg, then 20 mg/kg, vs first injection at 20 mg/kg): decreased expansion
% of Vg9Vd2 ([2]; five daily injection of 0.2 mg/kg BrHPP alone, 4 monkeys): expansion was not significant
Follow up of Vg9Vd2 ([2]; four daily injections 1, 4, 16, 32 mg/kg BrHPP alone, two animals): a decrease at day two post first injection
increase of Vg9Vd2 ([2]; fourth injection of 80 mg/kg BrHPP and IL2, five animals): detectable increase of Vg9Vd2 although lower than that obtained in the third injection
absolute numbers of Vg9Vd2 (mean) [2, 3]: 10,000 Vg9Vd2 cells/mm3
level of circulating Vg9Vd2 among circulating CD3 positive cells [2, 3]: about 80%
Absolute increase of Vg9Vd2 ([2]; same dose split in 5 daily injections of 4 mg/kg + IL2 5 days, 4 mg/kg): 8 × and 18 ×
amplification rate at the second injection vs first ([2]; second single shot 20 mg/kg + IL2, animals with 5 daily 4 mg/kg at first injection): slightly higher amplification rate
amplification rate in the second injection vs first ([2]; second single shot 20 mg/kg + IL2, animals with single shot at first injection): slightly reduced amplification rate
Absolute increase of Vg9Vd2 ([2]; single dose 20 mg/kg + IL2 5 days, 20 mg/kg): 30 × and 40 ×
increase of Vγ9Vδ2 ([2]; third cycle 80 mg/kg + IL2, control animal which received only IL2 in first two courses): around 40
increase of Vγ9Vδ2 at the third injection ([2]; third injection 80 mg/kg + IL2, animal 2034): 28 ×
amplification of Vγ9Vδ2 ([2]; third injection 80 mg/kg + IL2, three other animals): lower than 40
mean increase of peripheral γδ cell number ([2]; total amount of 20 mg/kg BrHPP + IL2, day 7): 24 fold
